ChEMBL document CHEMBL5113553, “Synthesis and Bioactivity of Thiocarboxylic A and Derivatives” (J Nat Prod, 2022)
Converted amounts (≈) assume the structure as drawn.

Assays:
Candida albicans = experiment: Antifungal activity against Candida albicans assessed as fungal growth inhibition; format: functional
Staphylococcus aureus = experiment: Antibacterial activity against wild type Staphylococcus aureus USA300 incubated for 24 hrs; format: functional
Escherichia coli [1] = experiment: Antibacterial activity against wild type Escherichia coli incubated for 24 hrs; format: functional
Escherichia coli [2] = experiment: Antibacterial activity against Escherichia coli harboring delta tolC mutant assessed as inhibition of bacterial growth incubated for 24 hrs; format: functional, organism-based
L929 = experiment: Cytotoxicity against mouse L929 cells upto 100 uM measured after 72 hrs by alamar blue assay; format: toxicity, cell-based; conditions: l929, 72 h

MIC (Staphylococcus aureus)	MIC (Escherichia coli [1])	Structure (SMILES)	MIC (Candida albicans) [µg/mL]	IC50 (Escherichia coli [2]) [µM]	Activity (L929)
> 100 µM	> 100 µM	CCCC/C=C/C=C/[C@@]1(C)OC(c2ccsc2C)=C(C(=O)OC)C1=O	–	–	Non-Toxic
> 100 µM	> 100 µM	CC/C=C/C=C/[C@@]1(C)OC(c2ccc(C)s2)=C(C(=O)OC)C1=O	–	–	Non-Toxic
> 100 µM	> 100 µM	CC/C=C/C=C/[C@@]1(C)OC(c2sccc2C)=C(C(=O)OC)C1=O	–	–	Non-Toxic

Structure (SMILES)	MIC (Staphylococcus aureus)	MIC (Escherichia coli [1])	MIC (Candida albicans) [µg/mL]	IC50 (Escherichia coli [2]) [µM]	Activity (L929)
CC/C=C/C=C/[C@@]1(C)OC(c2ccsc2C)=C(C(=O)OC)C1=O	1.7 µg/mL	1.7 µg/mL	1.7 (≈ 5.11 µM)	44	Non-Toxic
